Measured values reported in ChEMBL document CHEMBL1781873, “Synthesis and antibacterial property of pyrrolopyrano quinolinones and pyrroloquinolines” (2011).
Converted amounts (≈) assume the structure as drawn. The source made the active and inactive calls. The rule behind the calls is not given here.

How the values were obtained:
[1] = tested on: Pseudomonas aeruginosa; assay: Antibacterial activity against Pseudomonas aeruginosa at 20 ug after 24 hrs by disc diffusion assay; type: functional; settings: read-out: IZ
[2] = tested on: Escherichia coli; assay: Inhibition of Escherichia coli DNA gyrase -mediated DNA relaxation using pBR322 DNA as substrate at […] after 1 hrs by agarose gel electrophoresis
[3] = tested on: Klebsiella pneumoniae; assay: Antibacterial activity against Klebsiella pneumoniae at 5 ug after 24 hrs by disc diffusion assay; type: functional; settings: read-out: IZ
[4] = tested on: Escherichia coli; assay: Antibacterial activity against Escherichia coli at 10 ug after 24 hrs by disc diffusion assay; type: functional; settings: read-out: IZ
[5] = tested on: Salmonella typhi; assay: Antibacterial activity against Salmonella typhi at 10 ug after 24 hrs by disc diffusion assay; type: functional, Salmonella enterica subsp. enterica serovar Typhi; settings: Salmonella enterica, read-out: IZ
[6] = tested on: Klebsiella pneumoniae; assay: Antibacterial activity against Klebsiella pneumoniae after 18 to 20 hrs by broth micro dilution assay; type: functional
[7] = tested on: Klebsiella pneumoniae; assay: Antibacterial activity against Klebsiella pneumoniae at 20 ug after 24 hrs by disc diffusion assay; type: functional; settings: read-out: IZ
[8] = tested on: Escherichia coli; assay: Inhibition of Escherichia coli DNA gyrase assessed as inhibition of DNA supercoiling activity using pBR322 DNA as substrate at […] after 3 hrs by agarose gel electrophoresis
[9] = tested on: Salmonella typhi; assay: Antibacterial activity against Salmonella typhi at 25 ug after 24 hrs by disc diffusion assay; type: functional, Salmonella enterica subsp. enterica serovar Typhi; settings: Salmonella enterica, read-out: IZ
[10] = tested on: Escherichia coli; assay: Antibacterial activity against Escherichia coli at 15 ug after 24 hrs by disc diffusion assay; type: functional; settings: read-out: IZ
[11] = tested on: Klebsiella pneumoniae; assay: Antibacterial activity against Klebsiella pneumoniae at 10 ug after 24 hrs by disc diffusion assay; type: functional; settings: read-out: IZ
[12] = tested on: Staphylococcus aureus; assay: Antibacterial activity against Staphylococcus aureus at 5 ug after 24 hrs by disc diffusion assay; type: functional; settings: read-out: IZ
[13] = tested on: Staphylococcus aureus; assay: Antibacterial activity against Staphylococcus aureus at 10 ug after 24 hrs by disc diffusion assay; type: functional; settings: read-out: IZ
[14] = tested on: Salmonella typhi; assay: Antibacterial activity against Salmonella typhi at 15 ug after 24 hrs by disc diffusion assay; type: functional, Salmonella enterica subsp. enterica serovar Typhi; settings: Salmonella enterica, read-out: IZ
[15] = tested on: Bacillus subtilis; assay: Antibacterial activity against Bacillus subtilis after 18 to 20 hrs by broth micro dilution assay; type: functional
[16] = tested on: Escherichia coli; assay: Antibacterial activity against Escherichia coli at 20 ug after 24 hrs by disc diffusion assay; type: functional; settings: read-out: IZ
[17] = tested on: Klebsiella pneumoniae; assay: Antibacterial activity against Klebsiella pneumoniae at 15 ug after 24 hrs by disc diffusion assay; type: functional; settings: read-out: IZ
[18] = tested on: Staphylococcus aureus; assay: Antibacterial activity against Staphylococcus aureus at 15 ug after 24 hrs by disc diffusion assay; type: functional; settings: read-out: IZ
[19] = tested on: Escherichia coli; assay: Inhibition of DNA gyrase mRNA expression in Escherichia coli measured up to 24 hrs by RT-PCR; type: functional, organism-based
[20] = tested on: Salmonella typhi; assay: Antibacterial activity against Salmonella typhi at 5 ug after 24 hrs by disc diffusion assay; type: functional, Salmonella enterica subsp. enterica serovar Typhi; settings: Salmonella enterica, read-out: IZ
[21] = tested on: Staphylococcus aureus; assay: Antibacterial activity against Staphylococcus aureus at 25 ug after 24 hrs by disc diffusion assay; type: functional; settings: read-out: IZ
[22] = tested on: Pseudomonas aeruginosa; assay: Antibacterial activity against Pseudomonas aeruginosa at 15 ug after 24 hrs by disc diffusion assay; type: functional; settings: read-out: IZ
[23] = tested on: Pseudomonas aeruginosa; assay: Antibacterial activity against Pseudomonas aeruginosa at 10 ug after 24 hrs by disc diffusion assay; type: functional; settings: read-out: IZ
[24] = tested on: Bacillus subtilis; assay: Antibacterial activity against Bacillus subtilis at 15 ug after 24 hrs by disc diffusion assay; type: functional; settings: read-out: IZ
[25] = tested on: Staphylococcus aureus; assay: Antibacterial activity against Staphylococcus aureus after 18 to 20 hrs by broth micro dilution assay; type: functional
[26] = tested on: Bacillus subtilis; assay: Antibacterial activity against Bacillus subtilis at 20 ug after 24 hrs by disc diffusion assay; type: functional; settings: read-out: IZ
[27] = tested on: Salmonella typhi; assay: Antibacterial activity against Salmonella typhi at 20 ug after 24 hrs by disc diffusion assay; type: functional, Salmonella enterica subsp. enterica serovar Typhi; settings: Salmonella enterica, read-out: IZ
[28] = tested on: Pseudomonas aeruginosa; assay: Antibacterial activity against Pseudomonas aeruginosa at 25 ug after 24 hrs by disc diffusion assay; type: functional; settings: read-out: IZ
[29] = tested on: Escherichia coli; assay: Antibacterial activity against Escherichia coli at 25 ug after 24 hrs by disc diffusion assay; type: functional; settings: read-out: IZ
[30] = tested on: Salmonella typhi; assay: Antibacterial activity against Salmonella typhi after 18 to 20 hrs by broth micro dilution assay; type: functional, Salmonella enterica subsp. enterica serovar Typhi; settings: Salmonella enterica
[31] = tested on: Pseudomonas aeruginosa; assay: Antibacterial activity against Pseudomonas aeruginosa at 5 ug after 24 hrs by disc diffusion assay; type: functional; settings: read-out: IZ
[32] = tested on: Pseudomonas aeruginosa; assay: Antibacterial activity against Pseudomonas aeruginosa after 18 to 20 hrs by broth micro dilution assay; type: functional
[33] = tested on: Escherichia coli; assay: Antibacterial activity against Escherichia coli at 5 ug after 24 hrs by disc diffusion assay; type: functional; settings: read-out: IZ
[34] = tested on: Escherichia coli; assay: Antibacterial activity against Escherichia coli after 18 to 20 hrs by broth micro dilution assay; type: functional
[35] = tested on: Bacillus subtilis; assay: Antibacterial activity against Bacillus subtilis at 25 ug after 24 hrs by disc diffusion assay; type: functional; settings: read-out: IZ
[36] = tested on: Klebsiella pneumoniae; assay: Antibacterial activity against Klebsiella pneumoniae at 25 ug after 24 hrs by disc diffusion assay; type: functional; settings: read-out: IZ
[37] = tested on: Staphylococcus aureus; assay: Antibacterial activity against Staphylococcus aureus at 20 ug after 24 hrs by disc diffusion assay; type: functional; settings: read-out: IZ

Q: Which zone of inhibition at 20 µg/disc [1] does the source give for `CCC1[C@@H]2Nc3ccc(Cl)cc3C(C)(C)[C@H]2CN1OS(=O)(=O)c1ccc(C)cc1` (stereo partly specified) here?
A: 20 mm

Q: And the inhibition [2]?
A: Active

Q: What about the zone of inhibition at 5 µg/disc [3] of the same compound?
A: 20 mm

Q: What about the zone of inhibition at 10 µg/disc [4] of the same compound?
A: 16 mm

Q: And the zone of inhibition at 10 µg/disc [5]?
A: 16 mm

Q: What about the MIC50 [6] of the same compound?
A: 128 µg/mL (≈ 294 µM)

Q: And the MIC90 [6]?
A: 128 µg/mL (≈ 294 µM)

Q: And the zone of inhibition at 20 µg/disc [7]?
A: 34 mm

Q: And the “DNA gyrase inhibition (active/inactive)” value [8]?
A: Active

Q: What about the zone of inhibition at 25 µg/disc [9] of the same compound?
A: 24 mm

Q: What about the zone of inhibition at 15 µg/disc [10] of the same compound?
A: 18 mm

Q: And the zone of inhibition at 10 µg/disc [11]?
A: 26 mm

Q: What about the zone of inhibition at 5 µg/disc [12] of the same compound?
A: 20 mm

Q: And the zone of inhibition at 10 µg/disc [13]?
A: 24 mm

Q: And the zone of inhibition at 15 µg/disc [14]?
A: 18 mm

Q: And the MIC50 [15]?
A: 128 µg/mL (≈ 294 µM)

Q: What about the MIC90 [15] of the same compound?
A: 128 µg/mL (≈ 294 µM)

Q: What about the zone of inhibition at 20 µg/disc [16] of the same compound?
A: 20 mm

Q: What about the zone of inhibition at 15 µg/disc [17] of the same compound?
A: 30 mm

Q: And the zone of inhibition at 15 µg/disc [18]?
A: 26 mm

Q: What about the “inhibition of gyrase mRNA expression (active/not active)” value [19] of the same compound?
A: Active

Q: What about the zone of inhibition at 5 µg/disc [20] of the same compound?
A: 10 mm

Q: And the zone of inhibition at 25 µg/disc [21]?
A: 36 mm

Q: What about the zone of inhibition at 15 µg/disc [22] of the same compound?
A: 16 mm

Q: What about the zone of inhibition at 10 µg/disc [23] of the same compound?
A: 14 mm

Q: And the zone of inhibition at 15 µg/disc [24]?
A: 6 mm

Q: And the MIC50 [25]?
A: 128 µg/mL (≈ 294 µM)

Q: And the MIC90 [25]?
A: 128 µg/mL (≈ 294 µM)

Q: What about the zone of inhibition at 20 µg/disc [26] of the same compound?
A: 7 mm

Q: What about the zone of inhibition at 20 µg/disc [27] of the same compound?
A: 22 mm

Q: And the zone of inhibition at 25 µg/disc [28]?
A: 23 mm

Q: What about the zone of inhibition at 25 µg/disc [29] of the same compound?
A: 23 mm

Q: What about the MIC50 [30] of the same compound?
A: 128 µg/mL (≈ 294 µM)

Q: And the MIC90 [30]?
A: 128 µg/mL (≈ 294 µM)

Q: And the zone of inhibition at 5 µg/disc [31]?
A: 10 mm

Q: And the MIC50 [32]?
A: 128 µg/mL (≈ 294 µM)

Q: What about the MIC90 [32] of the same compound?
A: 128 µg/mL (≈ 294 µM)

Q: What about the zone of inhibition at 5 µg/disc [33] of the same compound?
A: 10 mm

Q: What about the MIC50 [34] of the same compound?
A: 128 µg/mL (≈ 294 µM)

Q: And the MIC90 [34]?
A: 128 µg/mL (≈ 294 µM)

Q: What about the zone of inhibition at 25 µg/disc [35] of the same compound?
A: 9 mm

Q: And the zone of inhibition at 25 µg/disc [36]?
A: 36 mm

Q: And the zone of inhibition at 20 µg/disc [37]?
A: 30 mm

Q: Which zone of inhibition at 20 µg/disc [1] does the source give for `CCC1[C@@H]2Nc3ccccc3C(c3ccccc3)[C@H]2CN1OS(=O)(=O)c1ccc(C)cc1` (stereo partly specified) here?
A: 20 mm

Q: And the inhibition [2]?
A: Active

Q: What about the zone of inhibition at 5 µg/disc [3] of the same compound?
A: 20 mm

Q: And the zone of inhibition at 10 µg/disc [4]?
A: 16 mm

Q: What about the zone of inhibition at 10 µg/disc [5] of the same compound?
A: 16 mm

Q: And the MIC50 [6]?
A: 64 µg/mL (≈ 143 µM)

Q: And the MIC90 [6]?
A: 64 µg/mL (≈ 143 µM)

Q: And the zone of inhibition at 20 µg/disc [7]?
A: 34 mm

Q: And the “DNA gyrase inhibition (active/inactive)” value [8]?
A: Active

Q: What about the zone of inhibition at 25 µg/disc [9] of the same compound?
A: 24 mm

Q: And the zone of inhibition at 15 µg/disc [10]?
A: 18 mm

Q: And the zone of inhibition at 10 µg/disc [11]?
A: 26 mm

Q: And the zone of inhibition at 5 µg/disc [12]?
A: 20 mm

Q: And the zone of inhibition at 10 µg/disc [13]?
A: 24 mm

Q: What about the zone of inhibition at 15 µg/disc [14] of the same compound?
A: 18 mm

Q: What about the MIC50 [15] of the same compound?
A: 64 µg/mL (≈ 143 µM)

Q: What about the MIC90 [15] of the same compound?
A: 128 µg/mL (≈ 285 µM)

Q: And the zone of inhibition at 20 µg/disc [16]?
A: 20 mm

Q: What about the zone of inhibition at 15 µg/disc [17] of the same compound?
A: 30 mm

Q: What about the zone of inhibition at 15 µg/disc [18] of the same compound?
A: 26 mm

Q: What about the “inhibition of gyrase mRNA expression (active/not active)” value [19] of the same compound?
A: inactive

Q: What about the zone of inhibition at 5 µg/disc [20] of the same compound?
A: 10 mm

Q: And the zone of inhibition at 25 µg/disc [21]?
A: 36 mm

Q: What about the zone of inhibition at 15 µg/disc [22] of the same compound?
A: 16 mm

Q: And the zone of inhibition at 10 µg/disc [23]?
A: 14 mm

Q: What about the zone of inhibition at 15 µg/disc [24] of the same compound?
A: 6 mm

Q: What about the MIC50 [25] of the same compound?
A: 64 µg/mL (≈ 143 µM)

Q: And the MIC90 [25]?
A: 128 µg/mL (≈ 285 µM)

Q: What about the zone of inhibition at 20 µg/disc [26] of the same compound?
A: 7 mm

Q: And the zone of inhibition at 20 µg/disc [27]?
A: 22 mm

Q: And the zone of inhibition at 25 µg/disc [28]?
A: 23 mm

Q: And the zone of inhibition at 25 µg/disc [29]?
A: 23 mm

Q: And the MIC50 [30]?
A: 64 µg/mL (≈ 143 µM)

Q: What about the MIC90 [30] of the same compound?
A: 128 µg/mL (≈ 285 µM)

Q: And the zone of inhibition at 5 µg/disc [31]?
A: 10 mm

Q: And the MIC50 [32]?
A: 64 µg/mL (≈ 143 µM)

Q: What about the MIC90 [32] of the same compound?
A: 128 µg/mL (≈ 285 µM)

Q: What about the zone of inhibition at 5 µg/disc [33] of the same compound?
A: 10 mm

Q: And the MIC50 [34]?
A: 64 µg/mL (≈ 143 µM)

Q: And the MIC90 [34]?
A: 64 µg/mL (≈ 143 µM)

Q: What about the zone of inhibition at 25 µg/disc [35] of the same compound?
A: 9 mm

Q: What about the zone of inhibition at 25 µg/disc [36] of the same compound?
A: 36 mm

Q: And the zone of inhibition at 20 µg/disc [37]?
A: 30 mm
